Source: patent US5183819A, “Use of fused bicyclic imides in the treatment of various CNS disorders” (American Home Products Corporation, priority 1992, dated 1993)

Assays:
[1] = system: male Wistar rats; assay: Ethanol consumption, free choice between water and 5% aqueous ethanol; conditions: zalospirone 40 mg/kg, fluoxetine 10 mg/kg intraperitoneal; for ethanol consumed compared to control (Ringer's solution): treatment periods, g/kg or ml/rat basis
Experimental: A 12 hour light/dark cycle was programmed with darkness commencing at 1900 hr. […] The drinking tube positions were switched daily. The ethanol concentration was increased by 1% every 3 days until a concentration of 5% was reached. All rats were weighed daily and water or aqueous ethanol intake recorded.
After 3 days at the 5% ethanol concentration the rats that had consumed the 5% ethanol consistently began baseline and the inconsistent or poor drinkers were dropped from the study. A total of 30 rats began baseline studies. Baseline consisted of 8 days of free choice between water and 5% aqueous ethanol. During this time each rat received intraperitoneal injections of Ringer's solution (NaCl, 0.86 g; KCl, 0.03 g; and CaCl2.2H2 O, 0.033 g diluted to 100 ml with distilled water). Weight and water or 5% aqueous ethanol consumption were determined daily at 0800 hr and 1800 hr.

[2] = system: rats; conditions: intravenous or subcutaneous administration; cited from earlier work
[3] = system: isolation-induced aggressive mice; conditions: White et al. 1991; cited from earlier work
[4] = system: mice; conditions: White et al. 1991; cited from earlier work
[5] = system: monkeys with a preference for alcohol; conditions: cited from earlier work

With `CNCCC(Oc1ccc(C(F)(F)F)cc1)c1ccccc1` (centres unmarked) [fluoxetine] the “ethanol consumed compared to control (Ringer's solution)” value [1] was “significantly less ethanol”, the “food consumption compared to control rats” value [1] was “decreased food consumption” and the “total fluid intake vs control animals” value [1] was “less than with the control animals”. The “water consumption, treated vs. control rats” value [1] was “no significant differences” and the “weight gain compared to control rats” value [1] was “significantly less weight gain”.
In the case of `CCCN(CCC)C1CCc2cccc(O)c2C1` (centres unmarked) [8-OH-DPAT, 8-hydroxy-2-(di-n-propylamino)tetralin], the paradoxical sleep [2] is given as “reduced”, the slow wave sleep [2] is given as “reduced” and the wakefulness [2] is given as “increased wakefulness”.
In the case of `O=C1C2C3C=CC(C4C=CC43)C2C(=O)N1CCCCN1CCN(c2ncccn2)CC1` (centres unmarked) [zalospirone, 3a,4,4a,6a,7a-hexahydro-2-[4-[4-(2-pyrimidinyl)-1-piperazinyl]butyl]-4,7-ethano-1H-cyclobut[f]isoindole-1,3(2H)-dione], the “aggression in isolation-induced aggressive mice” value (from here on “aggression”) [3] is listed as “reduce aggression”, the “ethanol consumed compared to control (Ringer's solution)” value [1] is listed as “significantly less ethanol” and the “total fluid intake vs control animals” value [1] is listed as “less than with the control animals”. For the same molecule, the “water consumption, treated vs. control rats” value [1] was “no significant differences” and the “debilitating (sedating) effects at the antiaggressive dose” value [4] was “without the debilitating (sedating) effects”.
For `O=C1CC2(CCCC2)CC(=O)N1CCCCN1CCN(c2ncccn2)CC1` [buspirone], the “aggression” value [3] is given as “reduce aggression”, the preference for alcohol [5] is given as “lower the preference for alcohol” and the paradoxical sleep [2] is given as “reduced”. For the same molecule, the slow wave sleep [2] was “reduced” and the wakefulness [2] was “increased wakefulness”.
For `O=C1c2ccccc2S(=O)(=O)N1CCCCN1CCN(c2ncccn2)CC1` [ipsapirone], the “aggression” value [3] is listed as “reduce aggression”.
For `CC1(C)CC(=O)N(CCCCN2CCN(c3ncccn3)CC2)C(=O)C1` [gepirone], the “aggression” value [3] is listed as “reduce aggression”.
